Several values for one entry are separate records, joined by “and”; a condition that tells them apart may be missing. Equal values may be shown once.
Assays:
Assay type in all cases: cell-based
Set-up in all cases: GPCRome screening signal at PTGIR / GPCRome screening signal at PTH1R / GPCRome screening signal at PTH2R / GPCRome screening signal at QRFP / GPCRome screening signal at RXFP2 / GPCRome screening signal at RXFP3 / GPCRome screening signal at RXFP4 / GPCRome screening signal at S1PR2 / GPCRome screening signal at S1PR3 / GPCRome screening signal at S1PR4 / GPCRome screening signal at S1PR5 / GPCRome screening signal at SCTR / GPCRome screening signal at SSTR2 / GPCRome screening signal at SSSTR / GPCRome screening signal at SSTR4 / GPCRome screening signal at SSTR5 / GPCRome screening signal at SUCNR1 / GPCRome screening signal at TA1 / GPCRome screening signal at TAAR2 / GPCRome screening signal at TAAR5 / GPCRome screening signal at TAAR6 / GPCRome screening signal at TAAR8 / GPCRome screening signal at TACR1 / GPCRome screening signal at TACR2 / GPCRome screening signal at TACR3 / GPCRome screening signal at TBXA2R / GPCRome screening signal at TSHR / GPCRome screening signal at UTS2R / GPCRome screening signal at VIPR2 / GPCRome screening signal at GPR68 no V2 Tail / GPCRome screening signal at GRM2 / GPCRome screening signal at GRM3: reference not given here
320 non-olfactory GPCRs [1] = target: 320 non-olfactory GPCRs (Homo sapiens, UniProt Q9H228); details: receptor S1PR5
320 non-olfactory GPCRs [2] = target: T1, 320 non-olfactory GPCRs (Homo sapiens, UniProt Q9H1C0); details: receptor GPR92
T1 construct: expressed in transfected cells; host or cells: HTLA cells

320 non-olfactory GPCRs [3] = target: T2, 320 non-olfactory GPCRs (Homo sapiens, UniProt Q96RI8); details: receptor TAAR6
T2 construct: expressed in transfected cells; host or cells: HTLA cells

320 non-olfactory GPCRs [4] = target: T3, 320 non-olfactory GPCRs (Homo sapiens, UniProt Q9BXA5); details: receptor SUCNR1
T3 construct: expressed in transfected cells; host or cells: HTLA cells

[5] = Fig_5f, single replicate values
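Wherever GPCRome agonism screen response is given: fold over basal response of each receptor without drug.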

T1 sequence (Q9H1C0 whole entry): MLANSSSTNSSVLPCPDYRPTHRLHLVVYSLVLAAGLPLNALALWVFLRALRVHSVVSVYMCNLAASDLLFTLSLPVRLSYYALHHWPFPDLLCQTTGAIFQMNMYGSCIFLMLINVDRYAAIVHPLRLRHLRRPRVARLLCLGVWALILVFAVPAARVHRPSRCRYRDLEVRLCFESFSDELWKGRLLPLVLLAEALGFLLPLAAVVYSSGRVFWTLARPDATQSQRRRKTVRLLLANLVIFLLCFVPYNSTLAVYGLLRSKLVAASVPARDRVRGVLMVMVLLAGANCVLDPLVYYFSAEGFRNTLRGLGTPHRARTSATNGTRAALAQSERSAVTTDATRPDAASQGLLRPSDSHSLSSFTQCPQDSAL
320 non-olfactory GPCRs (Homo sapiens, UniProt Q9H228), sequence (Q9H228 whole entry): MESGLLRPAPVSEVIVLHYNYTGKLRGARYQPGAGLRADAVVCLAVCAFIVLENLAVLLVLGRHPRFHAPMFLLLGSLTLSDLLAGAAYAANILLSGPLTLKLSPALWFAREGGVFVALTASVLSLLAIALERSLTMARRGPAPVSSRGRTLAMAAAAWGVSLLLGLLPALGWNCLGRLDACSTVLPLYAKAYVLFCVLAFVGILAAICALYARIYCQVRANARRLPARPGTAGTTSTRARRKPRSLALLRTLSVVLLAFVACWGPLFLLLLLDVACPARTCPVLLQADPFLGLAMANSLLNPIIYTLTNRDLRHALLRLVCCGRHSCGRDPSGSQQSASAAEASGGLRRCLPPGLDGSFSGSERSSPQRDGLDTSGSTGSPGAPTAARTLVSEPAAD
T3 sequence (Q9BXA5 whole entry): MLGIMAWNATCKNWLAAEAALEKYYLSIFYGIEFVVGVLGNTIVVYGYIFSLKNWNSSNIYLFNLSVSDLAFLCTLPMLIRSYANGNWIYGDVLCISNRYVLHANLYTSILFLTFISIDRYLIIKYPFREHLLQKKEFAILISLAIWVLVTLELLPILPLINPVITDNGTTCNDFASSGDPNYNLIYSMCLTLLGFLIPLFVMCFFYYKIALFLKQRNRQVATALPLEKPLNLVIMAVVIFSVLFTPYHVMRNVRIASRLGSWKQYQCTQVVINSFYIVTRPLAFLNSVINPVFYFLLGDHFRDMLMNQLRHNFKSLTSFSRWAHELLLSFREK
T2 sequence (Q96RI8 whole entry): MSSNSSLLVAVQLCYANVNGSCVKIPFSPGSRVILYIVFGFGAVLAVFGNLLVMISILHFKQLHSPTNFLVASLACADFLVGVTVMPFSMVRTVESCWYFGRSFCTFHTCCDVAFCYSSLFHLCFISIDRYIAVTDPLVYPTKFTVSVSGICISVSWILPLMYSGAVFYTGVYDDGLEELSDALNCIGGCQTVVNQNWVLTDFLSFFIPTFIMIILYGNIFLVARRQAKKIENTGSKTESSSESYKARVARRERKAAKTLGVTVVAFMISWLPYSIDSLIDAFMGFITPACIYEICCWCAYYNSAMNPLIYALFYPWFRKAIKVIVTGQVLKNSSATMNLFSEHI

| Compound | GPCRome screening signal at S1PR5 (320 non-olfactory GPCRs [1]; [5]) | GPCRome screening signal at GPR92 (320 non-olfactory GPCRs [2]; [5]) | GPCRome screening signal at TAAR6 (320 non-olfactory GPCRs [3]; [5]) | GPCRome screening signal at SUCNR1 (320 non-olfactory GPCRs [4]; [5]) | GPCRome agonism screen response (320 non-olfactory GPCRs [1]; replicate values, Fig_4g) | GPCRome agonism screen response (320 non-olfactory GPCRs [2]; replicate values, Fig_4g) | GPCRome agonism screen response (320 non-olfactory GPCRs [3]; replicate values, Fig_4g) | GPCRome agonism screen response (320 non-olfactory GPCRs [4]; replicate values, Fig_4g) |
| --- | --- | --- | --- | --- | --- | --- | --- | --- |
| CCOc1ccccc1CCC(C)NCC1(O)CCCCC1.Cl (racemic) [Fig_5f] | 0.8048 and 0.6191 and 0.7126 and 0.9361 | 0.9709 and 0.5547 and 0.5858 and 0.9422 | 0.9086 and 0.7284 and 0.9687 and 0.7288 | 2.588 and 2.79 and 1.592 and 0.9771 |  |  |  |  |
| CCOc1cccc2cc(C(C)NCC3(O)CCCCC3)oc12 (centres unmarked) [O4LE6] |  |  |  |  | 0.6595 and 0.787 and 0.6694 and 0.8628 | 1.1613 and 0.7262 and 0.6248 and 2.678 | 1.686 and 0.9412 and 0.4865 and 0.01025 | 2.7145 and 1.744 and 1.03 and 1.189 |
